Converted amounts (≈) assume the structure as drawn. Blank lines part the entries; values can stand above or below the molecule they belong to. Starred links: 1 amine or outer side, 2 acyl side, 3 side chain; linkers in the order of their positions; H or OH if unused. Non-standard residues stand in square brackets, D forms with d. Residues, ends and D or L forms follow the SMILES beside them. Groups on a side chain read outwards from the residue. *: point of attachment. C16 diacid = O=C(O)CCCCCCCCCCCCCCC(=O)*; γGlu = O=C(O)[C@H](CCC(=O)[*:2])N[*:1]; Palmitoyl = CCCCCCCCCCCCCCCC(=O)*; Aib = CC(C)(N)C(=O)O
What was measured:
CRF2R = target: T1, CRF2R (Homo sapiens, UniProt Q13324); assay: EC50 [nM] CRF2R
T1 construct: expressed in transfected cells; host or cells: TeloHEAC
Source text: Table printed on a drawing sheet, Fig. 3
Head of the field: EC50 [nM] CRF2R
The patent's description of the figure: FIG. 3: Representative sequences from peptides according to the invention with an optimized stability profile, wherein K[sema] stands for K[gGlu-C(O)(CH2)14CH3]
First copying reader's note: Second half (positions 13-38, C-term and activity) of the first table; the rows follow the same order, so the four rows of Peptide Seq. 1 are Patent Sequence N° 130, 171, 172 and 173.
Where the first naming reader finds the target: head: EC50 [nM] CRF2R

human CRF2α receptor = target: T2, human CRF2α receptor (Homo sapiens, UniProt Q13324); assay: cAMP agonism at human CRF2α receptor in TeloHEAC cells, FA modified peptides (Example 19.9); type: cell-based; settings: 0% HSA, relative to urocortin 2
T2 construct: expressed in transfected cells; host or cells: TeloHEAC
T2 sequence (Q13324 1-411): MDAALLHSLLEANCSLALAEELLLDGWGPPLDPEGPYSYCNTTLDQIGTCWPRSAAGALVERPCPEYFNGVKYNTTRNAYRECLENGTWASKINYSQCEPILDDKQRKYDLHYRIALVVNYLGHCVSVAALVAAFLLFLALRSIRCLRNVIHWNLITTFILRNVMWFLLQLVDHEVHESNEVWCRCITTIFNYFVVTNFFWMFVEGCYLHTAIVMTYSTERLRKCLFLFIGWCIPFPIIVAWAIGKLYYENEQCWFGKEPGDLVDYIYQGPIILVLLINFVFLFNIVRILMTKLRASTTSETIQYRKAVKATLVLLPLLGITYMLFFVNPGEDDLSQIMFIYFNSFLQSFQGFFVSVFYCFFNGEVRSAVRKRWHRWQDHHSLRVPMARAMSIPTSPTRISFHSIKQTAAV
In short: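 Efficacy and EC50 are referenced to 100 nM urocortin 2 as 100%, with cAMP measured as the 665/620 nm HTRF ratio after 1 h at room temperature. Compounds (0.5 mM DMSO stock, 16 twofold dilutions) acted 30 min at 37 °C on CRF2α-expressing TeloHEAC cells, buffer containing IBMX and 0% or 0.2% HSA.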

CRF1R receptor = target: T3, CRF1R receptor (Homo sapiens, UniProt P34998); assay: cAMP activity at anti-target CRF1R, CHO-K1 cell line clone 2 (Example 19.10); type: cell-based; settings: ratio of CRF1 EC50 to CRF2 EC50
T3 construct: host or cells: CHO-K1 clone 2
T3 sequence (P34998 24-415): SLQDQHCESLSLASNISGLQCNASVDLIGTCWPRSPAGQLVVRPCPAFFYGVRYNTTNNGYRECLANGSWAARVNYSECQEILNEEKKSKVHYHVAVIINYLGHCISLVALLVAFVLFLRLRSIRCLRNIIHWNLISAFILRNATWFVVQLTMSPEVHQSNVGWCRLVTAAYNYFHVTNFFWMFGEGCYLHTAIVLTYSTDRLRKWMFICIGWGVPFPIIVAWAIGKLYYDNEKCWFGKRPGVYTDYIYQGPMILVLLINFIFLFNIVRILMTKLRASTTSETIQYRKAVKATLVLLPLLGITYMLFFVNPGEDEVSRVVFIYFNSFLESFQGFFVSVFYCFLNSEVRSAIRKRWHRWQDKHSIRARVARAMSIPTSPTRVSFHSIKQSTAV
In short: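 A CRF1R-overexpressing CHO-K1 line (clone 2) was grown in F12/10% FBS/G418 and frozen in aliquots before use. The cAMP assay followed the preceding procedure, with 100% activation defined by Sauvagine at 100 nM.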

[1] = Chemical stability as % loss by LC-UV, 28 days 40° C. vs 5° C. (Example 19.11); type: physicochemical
Procedure: (§1) As for example 15 above, also the chemical stability of representative examples of these FA modified peptides has been assessed, using LC-UV instead of light scattering. Solubility and chemical stability were studied in 100 mM phosphate buffer (pH 7.4) and 100 mM acetate buffer (pH 4.5). Test compound powders were dissolved in both buffers at a target concentration of 10 mg/mL and incubated for 1 hour at room temperature. After centrifugation at 2500 rcf for 15 minutes, […] of supernatant was diluted with […] of the incubation buffer and analyzed by LC-UV (Acquity UPLC-DAD, Waters). Solubility was calculated by comparing the peak area of the test compound in the buffer sample with the peak area of the same compound dissolved at 0.5 mg/ml in water:acetonitrile 1:1, 0.1% formic acid.
From the centrifuged supernatant, two additional […] aliquots were collected and diluted with […] of incubation buffer. One aliquot was stored at 5° C., while the other was stored at 40° C. After 28 days, the samples were analyzed by LC-UV. Chemical stability was calculated as % loss using the following equations: • Chemical stability (as % loss)=[(purity after 28 days at 5° C.)−(purity after 28 days at 40° C.)]×100/(purity after 28 days at 5° C.) % purity=[(peak area compound)×100/(total peak area)]

[2] = Buffer solubility by LC-UV, pH 7.4 phosphate and pH 4.5 acetate (Example 19.11); type: physicochemical; settings: target 10 mg/mL
Procedure: as §1

EC50 (CRF2R): 0.07 nM
SMILES: CCCCCCCCCCCCCCCC(=O)N[C@@H](CCC(=O)NCCCC[C@H](NC(=O)[C@H](CC(C)C)NC(=O)[C@H](CCCCN)NC(=O)[C@@H](NC(=O)[C@@H]1CCCN1C(=O)[C@@H](NC(=O)[C@H](CC(=O)O)NC(=O)[C@H](CC(C)C)NC(=O)[C@H](CO)NC(=O)[C@H](CC(C)C)NC(=O)[C@@H](NC(=O)[C@@H](N)[C@@H](C)CC)C(C)C)C(C)C)[C@@H](C)CC)C(=O)N[C@@H](CCCCN)C(=O)N[C@H](C(=O)N[C@@H](CC(C)C)C(=O)N[C@@H](CC(C)C)C(=O)N[C@@H](CCC(=O)O)C(=O)N[C@@H](CCC(N)=O)C(=O)N[C@@H](CCC(=O)O)C(=O)N[C@@H](CCCCN)C(=O)N[C@@H](CCC(N)=O)C(=O)N[C@@H](CCC(=O)O)C(=O)N[C@@H](CCCCN)C(=O)N[C@@H](CCC(=O)O)C(=O)N[C@@H](CCCCN)C(=O)N[C@@H](CCC(N)=O)C(=O)N[C@@H](CCC(N)=O)C(=O)N[C@@H](C)C(=O)N[C@@H](CCC(=O)O)C(=O)N[C@H](C(=O)N[C@@H](CC(N)=O)C(=O)N[C@@H](C)C(=O)N[C@@H](CCC(N)=O)C(=O)N[C@H](C(=O)N[C@@H](CC(C)C)C(=O)N[C@@H](C)C(=O)N[C@@H](CCC(N)=O)C(=O)N[C@H](C(N)=O)C(C)C)[C@@H](C)CC)[C@@H](C)O)[C@@H](C)CC)C(=O)O [SEQ ID NO: 2] (H-IVLSLDVPIKLK([γGlu-Palmitoyl])KILLEQEKQEKEKQQAETNAQILAQV-NH2)

EC50 (CRF2R): 0.04 nM
SMILES: CCCCCCCCCCCCCCCC(=O)N[C@@H](CCC(=O)NCCCC[C@H](NC(=O)[C@H](CC(C)C)NC(=O)[C@H](CCCCN)NC(=O)[C@@H](NC(=O)[C@@H]1CCCN1C(=O)[C@@H](NC(=O)[C@H](CC(=O)O)NC(=O)[C@H](CC(C)C)NC(=O)[C@H](CO)NC(=O)[C@H](CC(C)C)NC(=O)[C@@H](NC(=O)[C@@H](N)[C@@H](C)CC)C(C)C)C(C)C)[C@@H](C)CC)C(=O)N[C@@H](CCCCN)C(=O)N[C@H](C(=O)N[C@@H](CC(C)C)C(=O)N[C@@H](CC(C)C)C(=O)N[C@@H](CCC(=O)O)C(=O)N[C@@H](CCC(N)=O)C(=O)N[C@@H](CCC(=O)O)C(=O)N[C@@H](CCCCN)C(=O)N[C@@H](CCC(N)=O)C(=O)N[C@@H](CCC(=O)O)C(=O)N[C@@H](CCCCN)C(=O)N[C@@H](CCC(=O)O)C(=O)N[C@@H](CCCCN)C(=O)N[C@@H](CCC(N)=O)C(=O)N[C@@H](CCC(N)=O)C(=O)N[C@@H](C)C(=O)N[C@@H](CCC(=O)O)C(=O)N[C@@H](CCCCN)C(=O)N[C@@H](CC(N)=O)C(=O)N[C@@H](C)C(=O)N[C@@H](CCC(N)=O)C(=O)N[C@H](C(=O)N[C@@H](CC(C)C)C(=O)N[C@@H](C)C(=O)N[C@@H](CCC(N)=O)C(=O)N[C@H](C(N)=O)C(C)C)[C@@H](C)CC)[C@@H](C)CC)C(=O)O [SEQ ID NO: 3] (H-IVLSLDVPIKLK([γGlu-Palmitoyl])KILLEQEKQEKEKQQAEKNAQILAQV-NH2)

EC50 (CRF2R): 0.05 nM
SMILES: CCCCCCCCCCCCCCCC(=O)N[C@@H](CCC(=O)NCCCC[C@H](NC(=O)[C@H](CC(C)C)NC(=O)CNC(=O)[C@@H](NC(=O)[C@@H]1CCCN1C(=O)[C@@H](NC(=O)[C@H](CC(=O)O)NC(=O)[C@H](CC(C)C)NC(=O)[C@H](CO)NC(=O)[C@H](CC(C)C)NC(=O)[C@@H](NC(=O)[C@@H](N)[C@@H](C)CC)C(C)C)C(C)C)[C@@H](C)CC)C(=O)N[C@@H](CCC(N)=O)C(=O)N[C@@H](CCCCN)C(=O)N[C@@H](CC(C)C)C(=O)N[C@@H](CC(C)C)C(=O)N[C@@H](CCCCN)C(=O)N[C@@H](CCC(N)=O)C(=O)N[C@@H](CCC(=O)O)C(=O)N[C@@H](CCCCN)C(=O)N[C@@H](CCC(N)=O)C(=O)N[C@@H](CCC(=O)O)C(=O)N[C@@H](CCCCN)C(=O)N[C@@H](CCC(=O)O)C(=O)N[C@@H](CCCCN)C(=O)N[C@@H](CCC(N)=O)C(=O)N[C@@H](CCC(N)=O)C(=O)N[C@@H](C)C(=O)N[C@@H](CCC(=O)O)C(=O)N[C@H](C(=O)N[C@@H](CC(N)=O)C(=O)N[C@@H](C)C(=O)N[C@@H](CCCCN)C(=O)N[C@H](C(=O)N[C@@H](CC(C)C)C(=O)N[C@@H](C)C(=O)N[C@@H](CCC(N)=O)C(=O)N[C@H](C(N)=O)C(C)C)[C@@H](C)CC)[C@@H](C)O)C(=O)O [SEQ ID NO: 4] (H-IVLSLDVPIGLK([γGlu-Palmitoyl])QKLLKQEKQEKEKQQAETNAKILAQV-NH2)

EC50 (human CRF2α receptor): 0.46 nM | CRF1/CRF2 ratio (CRF1R receptor): 134 | % loss (chemical stability) ([1]; pH 4.5): 0% | % loss (chemical stability) ([1]; pH 7.4): 40% | solubility at 1 h ([2]; pH 4.5, 100 mM acetate buffer): 8300 µg/mL (≈ 1710 µM) | solubility at 1 h ([2]; pH 7.4, 100 mM phosphate buffer): 7900 µg/mL (≈ 1630 µM)
SMILES: CC[C@H](C)[C@H](N)C(=O)N[C@H](C(=O)N[C@@H](CC(C)C)C(=O)N[C@@H](CO)C(=O)N[C@@H](CC(C)C)C(=O)N[C@@H](CC(=O)O)C(=O)N[C@@H](C(=O)N1CCC[C@H]1C(=O)N[C@H](C(=O)N[C@@H](CCCCN)C(=O)N[C@@H](CC(C)C)C(=O)N[C@@H](CCCCNC(=O)CC[C@H](NC(=O)CCCCCCCCCCCCCCC(=O)O)C(=O)O)C(=O)N[C@@H](CCC(N)=O)C(=O)N[C@H](C(=O)N[C@@H](CC(C)C)C(=O)N[C@@H](CC(C)C)C(=O)N[C@@H](CCCCN)C(=O)N[C@@H](CCC(N)=O)C(=O)N[C@@H](CCC(=O)O)C(=O)N[C@@H](CCCNC(=N)N)C(=O)N[C@@H](CCC(N)=O)C(=O)N[C@@H](CCCCN)C(=O)NC(C)(C)C(=O)N[C@@H](CCC(N)=O)C(=O)N[C@@H](CCCNC(=N)N)C(=O)N[C@@H](CCC(N)=O)C(=O)N[C@@H](CCC(N)=O)C(=O)N[C@@H](C)C(=O)N[C@@H](CCC(=O)O)C(=O)N[C@@H](CCCCN)C(=O)N[C@@H](CC(N)=O)C(=O)N[C@@H](CCCCN)C(=O)N[C@@H](CCC(N)=O)C(=O)N[C@H](C(=O)N[C@@H](CC(C)C)C(=O)N[C@@H](C)C(=O)N[C@@H](CCC(N)=O)C(=O)N[C@H](C(N)=O)C(C)C)[C@@H](C)CC)[C@@H](C)CC)[C@@H](C)CC)C(C)C)C(C)C [compound 188] (H-IVLSLD[dV]PIKLK([γGlu-C16 diacid])QILLKQERQK[Aib]QRQQAEKNKQILAQV-NH2; N-terminus assumed)

Source: patent US12679878B2, “CRF2 receptor agonists and their use in therapy” (SANOFI, priority 2020, dated 2026)
